# Literature values in patent US8114906B2, “Essential fatty acids in the treatment and/or inhibition of depression in patients with coronary heart or artery disease” (Abbott Products GmbH, priority 2004, dated 2012).
# What was measured:
# [1] = tested on: depression in post-myocardial patients; conditions: one study
# [2] = tested on: treatment resistant depression; conditions: EPA added to treatment
SMILES,effects in post-myocardial patients with concomitant depression [1],symptoms of treatment resistant depression [2]
CN[C@H]1CC[C@@H](c2ccc(Cl)c(Cl)c2)c2ccccc21 [sertraline],beneficial effects,–
"CC/C=C\C/C=C\C/C=C\C/C=C\C/C=C\CCCC(=O)OCC [EPA, eicosapentanoic acid ethyl ester]",–,symptoms remission
